From US20240294531A1, “COVALENT HETEROCYCLES AND USES THEREOF” (Kumquat Biosciences Inc., priority 2022, published 2024)
pIC50, pKi: −log10 of the molar value.

target: BTK C481S protein (Homo sapiens (Human), UniProt Q06187, C481S); assay: BTK C481S HTRF displacement assay; format: binding; conditions: 1-hour incubation
Procedure: (§1) The ability of a compound to bind BTK wildtype or BTK C481S proteins was measured using an HTRF displacement assay. The assay measures the ability of a compound to displace a tracer ligand bound to the active site of BTK wildtype or BTK C481 S proteins.
(§2) Test compounds were prepared as 10 mM stock solutions in DMSO (Fisher cat #BP231-100). Compounds to be assayed were dispensed using an Echo 650 acoustic dispenser (Beckman Coulter) on a 384 well plate in 6 doses applying four-fold dilutions from the highest concentration of 5 μM. N-terminal GST-tagged recombinant full-length BTK wildtype protein and BTK C481 S protein 2-659 were purchased from Carna Biosciences, Inc (Kobe, Japan). BTK wildtype or BTK C481S protein was separately incubated with compound in assay buffer containing kinase tracer 239 (Thermo Fisher) and Mab anti GST-Th (PerkinElmer). After a 1-hour incubation at room temperature, the HTRF signal was measured using SPARK plate reader (Tecan) using the TR fluorescence mode. The HTRF ratio is calculated for DMSO, no protein control and compound samples using the following equation: HTRF ratio=Emmision665/Emmision620×10^4. The signal for the no protein control samples was used to subtract background noise from the DMSO and compound samples. Background subtracted HTRF ratios are used to calculate the percent inhibition, where DMSO controls are set to 0 percent inhibition. The percent inhibition is plotted as a function of compound concentration and IC50 values were calculated from a four-parameter logistic fit in Prism v9.4 (GraphPad), where the bottom and top are constrained to 0 and 100, respectively.
The same assay was used to measure the activity of selected compounds of the formula TBM-L-hydrogen. Using the IC50 value observed for a given reversible test compound, the KI of the test compound can be assessed using the formula KI=IC50/(1+([Tracer]/Kd)), wherein the tracer concentration in the assay [Tracer] is 50 nM and the tracer Kd for BTK C481S is 54 nM.

Sequence of BTK C481S protein (Q06187 2-659 C481S): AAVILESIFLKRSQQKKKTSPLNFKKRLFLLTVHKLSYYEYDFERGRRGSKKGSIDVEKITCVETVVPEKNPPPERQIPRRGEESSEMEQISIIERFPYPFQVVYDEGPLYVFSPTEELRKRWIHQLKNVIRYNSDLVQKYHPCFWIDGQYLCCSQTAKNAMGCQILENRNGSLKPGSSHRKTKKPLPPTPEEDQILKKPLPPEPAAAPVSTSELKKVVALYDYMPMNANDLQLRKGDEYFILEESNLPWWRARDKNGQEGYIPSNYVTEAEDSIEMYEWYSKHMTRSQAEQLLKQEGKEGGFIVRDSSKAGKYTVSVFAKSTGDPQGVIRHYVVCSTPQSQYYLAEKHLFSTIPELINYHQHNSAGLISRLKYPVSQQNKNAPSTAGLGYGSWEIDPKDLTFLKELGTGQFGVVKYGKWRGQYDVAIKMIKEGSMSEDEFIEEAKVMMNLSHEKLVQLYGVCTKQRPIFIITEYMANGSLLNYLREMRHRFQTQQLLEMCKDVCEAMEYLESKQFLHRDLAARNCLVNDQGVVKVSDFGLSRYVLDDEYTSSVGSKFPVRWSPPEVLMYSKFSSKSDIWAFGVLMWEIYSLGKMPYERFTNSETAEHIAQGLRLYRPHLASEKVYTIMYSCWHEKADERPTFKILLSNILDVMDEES

| SMILES | pIC50 |
| --- | --- |
| CN(C(=O)n1cncn1)C1CCCCC(n2nc(-c3ccc(Oc4ccccc4)cc3)c3c(N)ncnc32)C1 (centres unmarked) [Compound 118, N-(3-(4-amino-3-(4-phenoxyphenyl)-1H-pyrazolo[3,4-d]pyrimidin-1-yl)cycloheptyl)-N-methyl-1H-1,2,4-triazole-1-carboxamide] | ≥ 6.00 |
| CCC(CN(C)C(=O)n1cncn1)n1nc(-c2ccc(CNC(=O)c3cc(F)ccc3OC)cc2)c2c(N)ncnc21 (centres unmarked) [Compound 176, N-(2-(4-amino-3-(4-((5-fluoro-2-methoxybenzamido)methyl)phenyl)-1H-pyrazolo[3,4-d]pyrimidin-1-yl)butyl)-N-methyl-1H-1,2,4-triazole-1-carboxamide] | < 6.00 |
| COc1ccc(F)cc1C(=O)NCc1ccc(-c2nn(CC(N(C)C(=O)n3cncn3)C(F)(F)F)c(N)c2C(N)=O)cc1 (centres unmarked) [Compound 186, N-(3-(5-amino-4-carbamoyl-3-(4-((5-fluoro-2-methoxybenzamido)methyl)phenyl)-1H-pyrazol-1-yl)-1,1,1-trifluoropropan-2-yl)-N-methyl-1H-1,2,4-triazole-1-carboxamide] | ≥ 6.00 |
| COc1ccc(F)cc1C(=O)NCc1ccc(-c2nn(CC3CN(C(C)=O)CCN3C(=O)n3cncn3)c3ncnc(N)c23)cc1 (centres unmarked) [Compound 313, N-(4-(1-((4-acetyl-1-(1H-1,2,4-triazole-1-carbonyl)piperazin-2-yl)methyl)-4-amino-1H-pyrazolo[3,4-d]pyrimidin-3-yl)benzyl)-5-fluoro-2-methoxybenzamide] | < 6.00 |
| CN(C(=O)n1cncn1)[C@@H]1CCCC[C@H](n2nc(-c3ccc(Oc4ccccc4)cc3)c(C(N)=O)c2N)C1 [Compound 182, N-((1R,3S)-3-(5-amino-4-carbamoyl-3-(4-phenoxyphenyl)-1H-pyrazol-1-yl)cycloheptyl)-N-methyl-1H-1,2,4-triazole-1-carboxamide] | ≥ 6.00 |
| COc1ccc(F)cc1C(=O)NCc1ccc(-c2nn(C(C)CC3CCCN3C(=O)n3cncn3)c3ncnc(N)c23)cc1 (centres unmarked) [Compound 166, N-(4-(1-(1-(1-(1H-1,2,4-triazole-1-carbonyl)pyrrolidin-2-yl)propan-2-yl)-4-amino-1H-pyrazolo[3,4-d]pyrimidin-3-yl)benzyl)-5-fluoro-2-methoxybenzamide] | ≥ 6.00 |
| COc1ccc(F)cc1C(=O)NCc1ccc(-c2nn(C3CCCC(N(C)C(=O)n4cncn4)C3)c3ncnc(N)c23)cc1 (centres unmarked) [Compound 177, N-(3-(4-amino-3-(4-((5-fluoro-2-methoxybenzamido)methyl)phenyl)-1H-pyrazolo[3,4-d]pyrimidin-1-yl)cyclohexyl)-N-methyl-1H-1,2,4-triazole-1-carboxamide] | ≥ 6.00 |
| CN(C(=O)n1cncn1)C1CCC(n2nc(-c3ccc(Oc4ccccc4)cc3)c3c(N)ncnc32)C1 (centres unmarked) [Compound 116, N-(3-(4-amino-3-(4-phenoxyphenyl)-1H-pyrazolo[3,4-d]pyrimidin-1-yl)cyclopentyl)-N-methyl-1H-1,2,4-triazole-1-carboxamide] | ≥ 6.00 |
| COc1ccc(F)cc1C(=O)NCc1ccc(-c2nn(C(C)C(C)CN(C)C(=O)n3cncn3)c3ncnc(N)c23)cc1 (centres unmarked) [Compound 189, N-(3-(4-amino-3-(4-((5-fluoro-2-methoxybenzamido)methyl)phenyl)-1H-pyrazolo[3,4-d]pyrimidin-1-yl)-2-methylbutyl)-N-methyl-1H-1,2,4-triazole-1-carboxamide] | ≥ 6.00 |
| CN(C(=O)n1cncn1)C1CCC(n2nc(-c3ccc(Oc4ccccc4)cc3)c(C(N)=O)c2N)C1 (centres unmarked) [Compound 302, N-(3-(5-amino-4-carbamoyl-3-(4-phenoxyphenyl)-1H-pyrazol-1-yl)cyclopentyl)-N-methyl-1H-1,2,4-triazole-1-carboxamide] | ≥ 6.00 |
| CN(C(=O)n1cncn1)C1CCCC(n2nc(-c3ccc(Oc4ccccc4)cc3)c3c(N)ncnc32)C1 (centres unmarked) [Compound 160, N-(3-(4-amino-3-(4-phenoxyphenyl)-1H-pyrazolo[3,4-d]pyrimidin-1-yl)cyclohexyl)-N-methyl-1H-1,2,4-triazole-1-carboxamide] | ≥ 6.00 |
| COc1ccc(F)cc1C(=O)NCc1ccc(-c2nn(C3CCCCC(N(C)C(=O)n4cncn4)C3)c3ncnc(N)c23)cc1 (centres unmarked) [Compound 147, N-(3-(4-amino-3-(4-((5-fluoro-2-methoxybenzamido)methyl)phenyl)-1H-pyrazolo[3,4-d]pyrimidin-1-yl)cycloheptyl)-N-methyl-1H-1,2,4-triazole-1-carboxamide] | ≥ 6.00 |
| NC(=O)c1c(-c2ccc(Oc3ccccc3)cc2)nn2c1NCCC2C1CCN1C(=O)n1cncn1 (centres unmarked) [Compound 180, 7-(1-(1H-1,2,4-triazole-1-carbonyl)azetidin-2-yl)-2-(4-phenoxy-phenyl)-4,5,6,7-tetrahydropyrazolo [1,5-a]pyrimidine-3-carboxamide] | < 6.00 |

same assay, conditions: TBM-L-hydrogen compounds; KI=IC50/(1+([Tracer]/Kd)), [Tracer] 50 nM, Kd 54 nM

| SMILES | pKi |
| --- | --- |
| COc1ccc(F)cc1C(=O)NCc1ccc(-c2nn(CCNC3CC3)c3ncnc(N)c23)cc1 [reference compound] | > 6.18 |
| CCNCC1CCNc2c(C(N)=O)c(-c3ccc(Oc4ccccc4)cc3)nn21 (centres unmarked) [reference compound] | > 6.00 |
| COc1ccc(C)cc1C(=O)NCc1ccc(-c2nn(CC3CCCCN3)c3ncnc(N)c23)cc1 (centres unmarked) [reference compound] | > 6.22 |

target: BTK wildtype protein (Homo sapiens (Human), UniProt Q06187); assay: BTK wildtype HTRF displacement assay; format: binding; conditions: 1-hour incubation; read-out: BTK (wt) IC50
Procedure: as §1, §2

Sequence of BTK wildtype protein (Q06187 2-659): as the sequence (Q06187 2-659 C481S) above, with S480C counted along it

| SMILES | pIC50 |
| --- | --- |
| CCC(CN(C)C(=O)n1cncn1)n1nc(-c2ccc(CNC(=O)c3cc(F)ccc3OC)cc2)c2c(N)ncnc21 (centres unmarked) [Compound 176, N-(2-(4-amino-3-(4-((5-fluoro-2-methoxybenzamido)methyl)phenyl)-1H-pyrazolo[3,4-d]pyrimidin-1-yl)butyl)-N-methyl-1H-1,2,4-triazole-1-carboxamide] | < 6.00 |
| COc1ccc(F)cc1C(=O)NCc1ccc(-c2nn(CC(N(C)C(=O)n3cncn3)C(F)(F)F)c(N)c2C(N)=O)cc1 (centres unmarked) [Compound 186, N-(3-(5-amino-4-carbamoyl-3-(4-((5-fluoro-2-methoxybenzamido)methyl)phenyl)-1H-pyrazol-1-yl)-1,1,1-trifluoropropan-2-yl)-N-methyl-1H-1,2,4-triazole-1-carboxamide] | ≥ 6.00 |
| COc1ccc(F)cc1C(=O)NCc1ccc(-c2nn(CC3CN(C(C)=O)CCN3C(=O)n3cncn3)c3ncnc(N)c23)cc1 (centres unmarked) [Compound 313, N-(4-(1-((4-acetyl-1-(1H-1,2,4-triazole-1-carbonyl)piperazin-2-yl)methyl)-4-amino-1H-pyrazolo[3,4-d]pyrimidin-3-yl)benzyl)-5-fluoro-2-methoxybenzamide] | < 6.00 |
| CN(C(=O)n1cncn1)[C@@H]1CCCC[C@H](n2nc(-c3ccc(Oc4ccccc4)cc3)c(C(N)=O)c2N)C1 [Compound 182, N-((1R,3S)-3-(5-amino-4-carbamoyl-3-(4-phenoxyphenyl)-1H-pyrazol-1-yl)cycloheptyl)-N-methyl-1H-1,2,4-triazole-1-carboxamide] | ≥ 6.00 |
| CN(C(=O)n1cncn1)C1CCCC(n2nc(-c3ccc(Oc4ccccc4)cc3)c3c(N)ncnc32)C1 (centres unmarked) [Compound 233, N-(3-(4-amino-3-(4-phenoxyphenyl)-1H-pyrazolo[3,4-d]pyrimidin-1-yl)cyclohexyl)-N-methyl-1H-1,2,4-triazole-1-carboxamide] | ≥ 6.00 |
| CN(C(=O)n1cncn1)C1CCC(n2nc(-c3ccc(Oc4ccccc4)cc3)c3c(N)ncnc32)C1 (centres unmarked) [Compound 216, N-(3-(4-amino-3-(4-phenoxyphenyl)-1H-pyrazolo[3,4-d]pyrimidin-1-yl)cyclopentyl)-N-methyl-1H-1,2,4-triazole-1-carboxamide] | ≥ 6.00 |
| COc1ccc(F)cc1C(=O)NCc1ccc(-c2nn(C3CCCC(N(C)C(=O)n4cncn4)C3)c3ncnc(N)c23)cc1 (centres unmarked) [Compound 290, N-(3-(4-amino-3-(4-((5-fluoro-2-methoxybenzamido)methyl)phenyl)-1H-pyrazolo[3,4-d]pyrimidin-1-yl)cyclohexyl)-N-methyl-1H-1,2,4-triazole-1-carboxamide] | ≥ 6.00 |
| COc1ccc(F)cc1C(=O)NCc1ccc(-c2nn(C3CCC(N(C)C(=O)n4cncn4)C3)c(N)c2C(N)=O)cc1 (centres unmarked) [Compound 201, N-(3-(5-amino-4-carbamoyl-3-(4-((5-fluoro-2-methoxybenzamido)methyl)phenyl)-1H-pyrazol-1-yl)cyclopentyl)-N-methyl-1H-1,2,4-triazole-1-carboxamide] | ≥ 6.00 |
| COc1ccc(F)cc1C(=O)NCc1ccc(-c2nn(C3CCCCC(N(C)C(=O)n4cncn4)C3)c3ncnc(N)c23)cc1 (centres unmarked) [Compound 278, N-(3-(4-amino-3-(4-((5-fluoro-2-methoxybenzamido)methyl)phenyl)-1H-pyrazolo[3,4-d]pyrimidin-1-yl)cycloheptyl)-N-methyl-1H-1,2,4-triazole-1-carboxamide] | ≥ 6.00 |
| CN(C(=O)n1cncn1)C1CCC(n2nc(-c3ccc(Oc4ccccc4)cc3)c(C(N)=O)c2N)C1 (centres unmarked) [Compound 295, N-(3-(5-amino-4-carbamoyl-3-(4-phenoxyphenyl)-1H-pyrazol-1-yl)cyclopentyl)-N-methyl-1H-1,2,4-triazole-1-carboxamide] | ≥ 6.00 |
| COc1ccc(F)cc1C(=O)NCc1ccc(-c2nn(C3CCCC4(CCN4C(=O)n4cncn4)C3)c3ncnc(N)c23)cc1 (centres unmarked) [Compound 236, N-(4-(1-(1-(1H-1,2,4-triazole-1-carbonyl)-1-azaspiro[3.5]nonan-6-yl)-4-amino-1H-pyrazolo[3,4-d]pyrimidin-3-yl)benzyl)-5-fluoro-2-methoxybenzamide] | ≥ 6.00 |
| CN(C(=O)n1cncn1)C1CCCCC(n2nc(-c3ccc(Oc4ccccc4)cc3)c3c(N)ncnc32)C1 (centres unmarked) [Compound 314, N-(3-(4-amino-3-(4-phenoxyphenyl)-1H-pyrazolo[3,4-d]pyrimidin-1-yl)cycloheptyl)-N-methyl-1H-1,2,4-triazole-1-carboxamide] | ≥ 6.00 |
| NC(=O)c1c(-c2ccc(Oc3ccccc3)cc2)nn2c1NCCC2C1CCCN(C(=O)n2cncn2)C1 (centres unmarked) [Compound 283, 7-(1-(1H-1,2,4-triazole-1-carbonyl)piperidin-3-yl)-2-(4-phenoxyphenyl)-4,5,6,7-tetrahydropyrazolo[1,5-a] pyrimidine-3-carboxamide] | < 6.00 |
